Data set [1] has as its system SIBO-related hyperalgesia. In words: Treatment of SIBO-related hyperalgesia (cases). The format is in vivo, human. As for the experimental part:
Two adult female subjects with IBS required additional pharmacologic manipulations to treat their SIBO-related hyperalgesia. In the first case, SIBO was eradicated by antibiotic treatment. However, the subject complained of persistent feelings of rectal distension, consistent with residual hyperalgesia related to SIBO. The subjected was then administered Colpermin (peppermint oil) capsules and Elavil (5 mg taken at night) that alleviated their SIBO-related hyperalgesic symptoms, presumably by reducing intestinal wall tension and decreasing mechanoreceptor activation.
The second subject with a diagnosis of IBS was also found to have SIBO, as detected by LBHT. Their SIBO was eradicated by a combined treatment with antibiotic, intestinal lavage with Go-Lytely, and cisapride (10 mg tid) to increase their abnormally low phase III interdigestive motility. After eradication of SIBO, this subject similarly complained of persistent SIBO-related hyperalgesic symptoms of the bowel.

The test system of data set [2] is upper gut transit. In words: Upper gut transit time by lactulose breath hydrogen test after oleate or oleic acid. The format is in vivo, human. The conditions noted are these: 4 grams of oleic acid.
Data set [3] has as its system rapid upper gut transit and diarrhea. In words: Continued pre-meal oleate/oleic acid treatment: diarrhea, stool output, symptoms. The format is in vivo, human. An excerpt: Continuing oleic acid treatment at home was offered to Aresponders≅ (i.e., patients who experienced a greater than 100% increase in baseline transit time with 3.2 g oleic acid). Of the 36 responders out of the original 45 patients, 18 provided records of stool volume and frequency on- and off-treatment for comparison. The inconvenient and unappealing nature of stool collection and measurement were the primary reasons reported by responders who chose not to participate in stool collection. After completing a set of three preliminary breath hydrogen tests, each participating responder was asked to refrain from taking oleic acid for two days in order to measure off-treatment stool output for a 24-hour period. Patients were issued a stool pattern record form and a stool collection container with graduated volume markings to record the frequency and volume of bowel movements. After two days without oleic acid, each patient took 3.2 g of oleic acid mixed with 25 mL of Ensure emulsion three times a day, 30 minutes before breakfast, lunch and dinner. After taking oleic acid for two days, patients recorded stool output for another 24-hour period. With this oleic acid emulsion treatment, stool frequency decreased from 6.9±0.8 to 5.4±0.9 bowel movements per 24-hour period (p<0.05), and stool volume decreased from 1829.0±368.6 to 1322.5±256.9 per 24-hour period (p<0.05).
The patient was a person with a history of adolescent-onset, persistent diarrhea. […] They presented with complaints of excessive gas, postprandial bloating, diarrhea and urgency, and 3 to 7 liquid bowel movements per day. Their upper gut transit times were (min) 30 (0 g oleic acid), 117 (1.6 g oleic acid) and 101 (3.2 g oleic acid).

The subject of data set [4] is upper gut transit. Briefly: Upper gut transit time by lactulose breath hydrogen test after oleate or oleic acid. As to conditions: for upper gut transit time: case, diarrhea-predominant IBS. Type of data set: in vivo, human. An excerpt:
In a preliminary study, five patients with persistent diarrhea for 3 to 22 months, (one each due to vagal denervation, ileal resection for Crohn's disease, and vagotomy and antrectomy, and two due to idiopathic causes) were studied. […] This test relies on the metabolism of certain carbohydrate materials (e.g. lactulose) by the microbial flora within the caecum. By generating gas which can be detected in the expired air, it is possible to make some estimation about the initial arrival of the administered material within the colon.
Each patient received orally in random order, 0, 1.6 or 3.2 g of sodium oleate in 25 mL Ensure (Ross), followed by 100 mL water. Thirty minutes after each dose of oleate, patients received 10 g lactulose orally, followed by 25 mL water. Breath samples were collected in commercially available breath testing bags (Quintron, Menomonee Falls, Wis.) every 10-15 minutes, and the hydrogen content of the samples was measured using a breath analyzer (Microlyzer Model 12, Quintron Instruments, Menomonee Falls, Wis.), calibrated against gas samples of known hydrogen concentration. With a syringe, a 40-mL sample of the expired breath was withdrawn from the collection bag and analyzed immediately for hydrogen concentration (ppm). The hydrogen concentration value from each sample was plotted against time. Upper gut transit time was defined as the time in minutes from ingestion of lactulose (t0) until a rise of H2 of >10 ppm. Data were further analyzed using 1-way repeated measures analysis of variance (ANOVA)(See Table 4).
The effect of an active lipid on transit time was determined in 8 normal human subjects (1 male and 7 females with a mean age of 35±2.6 years [SE]) and 45 patients (20 males and 25 females with a mean age of 49.1±2.5 [SE], age range from 18 to 90 years) with chronic diarrhea (i.e., continuous diarrhea for more than two months) associated with a wide variety of diagnoses and conditions (e.g., Crohn's disease; irritable bowel syndrome; short bowel syndrome; Indiana pouch; AIDS; ulcerative colitis; vagotomy; antrectomy; ileostomy; partial and complete colectomy; colon cancer; diabetes mellitus type 1; pancreatic insufficiency; radiation enteropathy; esophagectomy/gastric pull-up; total and subtotal gastrectomy; gastrojejunostomy), made by referring gastroenterologists. The method was the same as described above, except oleic acid (Penta Manufacturing, Livingston, N.J.) replaced sodium oleate in 50 mL of Ensure emulsion. All subjects refrained from taking antibiotics for at least two weeks before each testing date and during stool measurement periods. Patients were also instructed to refrain from anti-diarrheal drugs, laxatives, somatostatin analogues or anticholinergics for at least 48 hours before each test. In both the normal and patient groups, there was a significant slowing of upper gut transit time in response to oleic acid, as summarized in Table 5 below (p<0.001).

Another data set relates to intestinal transit. Briefly: Intestinal transit in multi-fistulated dogs, cumulative % recovery of 99mTc-DTPA. The format is in vivo, dog. An excerpt: The experiments described below are based on a previously described chronic multi-fistulated dog model, employing surgically fistulated male or female mongrel dogs weighing about 25 kg each. (Lin, H. C. et al., Inhibition of gastric emptying by glucose depends on length of intestine exposed to nutrient, Am. J. Physiol. 256:G404-G411 [1989]). The small intestines of the dogs were each about 300 cm long from the pylorus to the ileal-cecal valve. The duodenal fistula was situated 15 cm from the pylorus; the mid-gut fistula was situated 160 cm from the pylorus. Occluding Foley catheters (balloon catheters that are inflated to produce a water-tight seal with the lumenal surface) were placed into the distal limb of a duodenal fistula and a mid-gut fistula, fat or other test agents were administered lumenally to the thus compartmentalized Aproximal≅ section of the gut, i.e., between the fistulas, or to the compartmentalized Adistal≅ section of the gut, i.e., beyond the mid-gut fistula. Perfusate was pumped into a test section through the catheter at a rate of 2 mL/minute. Test agents were administered along with buffer perfusate, but some test agents were administered intravenously, where specifically noted.
Intestinal transit measurements were made by tracking the movement of a liquid marker across the approximately 150 cm intestinal test segment by delivering about 20 μCi ^99mTc chelated to diethyltriamine pentaacetic acid (DTPA)(Cunningham, K. M. et al., Use of technicium-99m (V)thiocyanate to measure gastric emptying of fat, J. Nucl. Med. 32:878-881 [1991]) as a bolus into the test segment after 60 minutes of a 90-minute perfusion. The output from the mid-gut fistula was collected every 5 min thereafter for 30 minutes, which period is illustrated in FIGS. 9-23. Using a matched dose of ^99mTc to represent the original radioactivity (Johansson, C., Studies of gastrointestinal interactions, Scand. J. Gastroenterol. 9(Suppl 28):1-60 [1974]; Zierler, K., A simplified explanation of the theory of indicator dilution for measurement of fluid flow and volume and other distributive phenomena, Bull. John Hopkins 103:199-217 [1958]), the radioactivity delivered into the animal as well as the radioactivity of the recovered fistula output were all measured using a gamma well counter. After correcting all counts to time zero, intestinal transit was calculated as the cumulative percent recovery of the delivered ^99mTc-DTPA. This method has been well validated over the years and appreciated for its advantage of minimal inadvertent marker loss. […] There was a very high level of marker recovery, with 90% of the marker recovered by 30 minutes and 98% of the marker recovered by 45 minutes.

The subject of the next data set is ileal brake. As to conditions: rats, subcutaneous administration; Brown et al. 1993; cited from earlier work.
The subject of data set [5] is SIBO. Briefly: Case: autism with bowel symptoms, Augmentin. Type of data set: in vivo, human. The conditions noted are these: one patient.
The test system of data set [6] is SIBO. Briefly: Comparison of antibiotic regimes for eradicating SIBO, follow-up lactulose breath hydrogen test (LBHT). The format is in vivo, human. The conditions noted are these: follow-up LBHT. As for the experimental part: Subjects were tested after an overnight fast. […] Each breath sample was then analyzed for hydrogen content with a gas chromatograph (Quintron Model DP, Quintron Instrument Co., Division of E.F. Brewer Co, Menomonee Falls, Wis. 53051), standardized using a QuinGas standard as instructed by the manufacturer. Hydrogen peaks were plotted before and after an antimicrobial treatment regimen for comparison. The normal range for the second hydrogen peak was 0 to 20 ppm. Subjects referred to the Cedars-Sinai GI Motility Program for a lactulose breath hydrogen test (LBHT) to assess SIBO were entered into a database. Those that tested positive for SIBO were given antibiotic treatment by their referring physician and in some cases, returned for a follow-up LBHT to assess eradication of SIBO. During the follow-up LBHT, subjects were asked which antibiotic they were given to treat their SIBO. The eradication rate of each antibiotic was evaluated. Of the 771 subjects in the database, 561 (73%) tested positive for SIBO. […] (See Table 1 below). […] None of the commonly used antibiotics was universally successful in eradicating overgrowth.

Marks after values point to notes of the source that are not given here.

Consider `CN(C)CCC=C1c2ccccc2CCc2ccccc21` [Elavil, amitriptyline], for which the SIBO-related hyperalgesic symptoms result in data set [1] (first subject, Colpermin capsules and Elavil (5 mg at night) together) is recorded as “alleviated”.
Regarding `COc1cc(N)c(Cl)cc1C(=O)NC1CCN(CCCOc2ccc(F)cc2)CC1OC` (stereo not drawn) [cisapride], in data set [1] (second subject, combined antibiotic, lavage with Go-Lytely and cisapride (10 mg tid)), the “eradication of SIBO” value was “eradicated”.
With `CCCCCCCC/C=C\CCCCCCCC(=O)O` [oleic acid], the mean transit time in the data set with upper gut transit [2] (IBD patients (n=18)) amounted to 114.6 ± 16.0 min; in the data set with upper gut transit [2] (normal subjects (n=5)), 136.0 ± 15.4 min. Moreover, the “stool frequency, bowel movements per 24-hour period” value in data set [3] (18 responders, 3.2 g in 25 mL Ensure three times a day, off-treatment 6.9±0.8) came to 5.4±0.9. Besides, in data set [3] (18 responders, on treatment, off-treatment 1829.0±368.6), the “stool volume per 24-hour period” value came out at 1322.5±256.9. In addition, the “symptoms of gaseousness, bloating and rectal urgency” value in data set [3] (case, diarrhea-predominant IBS) is given as “complete relief”. Moreover, the bowel frequency result in data set [3] (case, diarrhea-predominant IBS, continuing treatment) is listed as “single, solid bowel movement per day”. Also, the adverse effect reported result in data set [3] (only adverse effect reported by any patient) is “slight and transient burning sensation in the mouth or throat”. The “responders (greater than 100% increase in baseline transit time)” value in the data set with upper gut transit [4] (3.2 g oleic acid, out of the original 45 patients) came to 36. In addition, the “Transit time (mean ± SE)” value amounted to 116 ± 11.1 min in the data set on upper gut transit [4] (Normal subjects (8), 1.6 g oleic acid in 50 mL Ensure); 140 ± 11.5 min with upper gut transit [4] (Normal subjects (8), 3.2 g oleic acid); 57.2 ± 4.5 min in the data set on upper gut transit [4] (Patients with chronic diarrhea (45), 1.6 g oleic acid); 83.3 ± 5.2 min with upper gut transit [4] (Patients with chronic diarrhea (45), 3.2 g oleic acid). The “upper gut transit time” value in the data set with upper gut transit [4] (1.6 g oleic acid) was determined as 117 min; in the data set with upper gut transit [4] (3.2 g oleic acid) it was 101 min.
For the compound `Cc1nccn1CC1CCc2c(c3ccccc3n2C)C1=O` (stereo not drawn) [ondansetron], the “Transit Across Proximal Gut (Cumulative % Marker Recovered)” value with intestinal transit (Buffer + NE + Ond perfused lumenally 0.7 mg/kg/h) is reported as 63.0 ± 4.4^b %. Besides, the marker recovery in the data set with intestinal transit (IV PYY + ondansetron 0.7 mg/kg/h in proximal gut) turned out to be 78.3±4.8%; in the data set with intestinal transit (IV PYY + ondansetron in distal gut), 12.9±12.9%; in the data set on intestinal transit (distal gut 5-HT + ondansetron 0.7 mg/kg bolus in distal gut) it was 79.5±2.4%; in the data set on intestinal transit (distal gut 5-HT + ondansetron 0.7 mg/kg bolus in proximal gut), 73.8±9.5%; in the data set with intestinal transit (ileal brake + 6.25 mg ondansetron bolus, proximal gut), 35.4%; in the data set with intestinal transit (ileal brake + 12.5 mg ondansetron bolus, proximal gut), 55.8%. The marker recovery was found to be 77.6% in the data set with intestinal transit (ileal brake + 25 mg ondansetron bolus, proximal gut); 13±2.0% in the data set on intestinal transit (ileal brake + intravenous ondansetron 0.15 mg/kg/1.5 h, n=2); 78±2.4% in the data set with intestinal transit (ileal brake + lumenal ondansetron 0.7 mg/kg/h in proximal gut, n=2); 22.8±2.6% with intestinal transit (ileal brake + ondansetron in distal gut, n=4); 68.5±2.7% in the data set with intestinal transit (ileal brake + ondansetron in proximal gut, n=4); 63.4% in the data set with intestinal transit (intravenous norepinephrine + ondansetron 0.7 mg/kg/h in proximal gut). Further, the marker recovery in the data set on intestinal transit (lumenal buffer + lumenal ondansetron, Buffer-NS 96.0±4.0%) stood at 57.9±15.9%; in the data set with intestinal transit (lumenal oleate + lumenal ondansetron 0.7 mg/kg bolus, proximal gut) it was 73.7±10.6%. Besides, the “ileal brake induced by ileal infusion of lipid” value with ileal brake is reported as “abolished the ileal brake”. The “intestinal transit of a baked bean meal” value in the data set on ileal brake is recorded as “delayed”.
On to Augmentin, for which, in the data set with SIBO [5], the concentration and behavior result is “some positive concentration and behavioral changes”. Moreover, the bowel habits result in the data set with SIBO [5] (500 mg twice a day for ten days) is given as “substantial improvement”. Further, the “% Patients with SIBO Eradicated” value in the data set with SIBO [6] is 50%.
